Measurements from patent EP1030842B1, “METALLOPROTEINASE INHIBITORS” (BRITISH BIOTECH PHARMACEUTICALS LIMITED, priority 1997, dated 1999).
Where two headings read alike, the source gives them in different places. Blank lines part the entries; values can stand above or below the compound they belong to.

Columns and labels:
[1] = Propensity to induce observable signs of tendinitis in rats (observation based score); format: in vivo, Male Lewis rats; settings: 5µl/hr; for signs of tendinitis: observed daily for 16 days, mean scores >2 significant
Experimental: The compound of the invention was tested for its propensity to induce observable signs of tendinitis in rats. The tendinitic effect in rats of the compound of the invention ("Compound A") was compared with that of a close structural isomer, namely N^1-[2,2-dimethyl-1S-(pyridin-3-ylcarbamoyl)-propyl]-N^4-hydroxy-2R-isobutyl-3S-hydroxy-succinamide ("Compound B").
Male Lewis rats were used. In each study up to 30 rats were weighed and randomised on bodyweight for group allocation, n=6/group. In each study, a corresponding vehicle group was run to compare with each treatment group.
Compound A was formulated as its mesylate salt, whilst Compound B was formulated as the free base. For Compound A @ 15mg/ml the vehicle was 50% DMSO, 37% 0.1M methane sulphonic acid, 13% sterile water; and @ 30mg/ml the vehicle was 50% DMSO, 37% 0.2M methane sulphonic acid, 13% sterile water. For Compound B @ 15mg/ml the vehicle was 50% DMSO/water.
Alzet (trade mark) osmotic minipumps (2ML2, 14 day, 5µl/hr from Alza Corp., Palo Alto CA 94303), were weighed empty and full to be sure of correct fill volume. Prior to implantation, filled pumps were placed in an incubator at 37°C. All rats were anaesthetized with halothane. Once anaesthetised, the scruff was shaved and disinfected. A longitudinal skin incision, approx 2 cm long, was made on the prepared site and a subcutaneous pocket was made under the skin using a pair of haemostatic forceps. Minipumps were inserted with the exit of the pump facing away from the wound. The incision wound was closed with sutures, and the area around the wound was re-disinfected. Immediately post-operatively, all the rats received analgesic, (Temgesic -trade mark - Reckitt and Colman) 0.1mg/kg s.c. in the flank. On recovery from anaesthesia, the animals were returned to cages containing dry bedding to ensure the wound remained dust free prior to healing. On the day followng surgery, all rats were placed back on standard bedding and housed in groups of 3 to enable more accurate observation of signs of tendinitis.
Following the implantation of mini-pumps, rats were weighed and monitored for the possible onset of tendinitis. Onset and severity of tendinitis was measured by an observation based scoring system (see below). The rats were observed daily for 16 days. Mean scores >2 were considered significant.

[2] = Blood concentration in minipump-dosed rats of the tendinitis study (fluorometric assay); format: in vivo; settings: rats of the tendinitis tests; blood samples days 3, 10 and 16 or 17 post implantation
Experimental: Blood samples were obtained on days 3 and 10 post minipump implantation from rats lightly anaesthetised with halothane via the tail vein. Blood samples (0.5ml) were placed into tubes containing 3.0ml methanol to extract free and bound compound. Blood concentration of Compound A or Compound B was determined by a fluorometric assay using the coumarin peptide substrate Mca-Pro-Leu-Gly-Leu-Dpa-Ala-Arg-NH2 (Mca = (7-methoxycoumarin-4-yl)acetyl, Dpa = N-3-(2,4-dinitrophenyl)-L-2,3-diaminopropyl) (see Knight et. al., FEBS Lett. 1992, 296, 263-266). On either day 16 or 17 post implantation, studies were ended, rats were terminally anaesthetised with halothane and blood samples (0.5ml) were taken by cardiac puncture and the blood concentration of Compound A or Compound B determined.

[3] = target: T1, 72 kDa gelatinase (Homo sapiens, UniProt P08253); test: 72 kDa gelatinase inhibition (14C gelatin, based on Sellers et al); format: biochemical; settings: 16 hours at 37°C
T1 construct: endogenous in cells; host or cells: RPMI-7951 cells
T1 sequence (P08253 110-660): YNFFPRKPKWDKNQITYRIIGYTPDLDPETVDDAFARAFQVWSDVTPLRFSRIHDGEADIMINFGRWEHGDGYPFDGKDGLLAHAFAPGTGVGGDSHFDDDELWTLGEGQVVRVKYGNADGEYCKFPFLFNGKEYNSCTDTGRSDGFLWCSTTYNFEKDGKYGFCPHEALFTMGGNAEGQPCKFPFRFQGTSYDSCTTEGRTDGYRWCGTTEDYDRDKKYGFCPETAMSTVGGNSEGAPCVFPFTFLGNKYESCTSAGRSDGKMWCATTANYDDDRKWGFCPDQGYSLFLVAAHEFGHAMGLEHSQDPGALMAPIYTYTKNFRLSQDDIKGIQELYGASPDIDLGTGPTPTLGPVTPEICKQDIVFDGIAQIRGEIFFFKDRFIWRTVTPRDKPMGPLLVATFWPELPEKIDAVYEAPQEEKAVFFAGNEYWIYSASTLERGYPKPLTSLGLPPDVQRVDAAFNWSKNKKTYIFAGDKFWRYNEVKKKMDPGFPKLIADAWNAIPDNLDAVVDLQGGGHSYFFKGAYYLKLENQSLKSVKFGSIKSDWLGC
Experimental: 72 kDa gelatinase, derived from RPMI-7951 cells was purified by gelatin-agarose chromatography. The enzyme was activated by incubation with aminophenyl mercuric acetate and approximately 0.05 units was incubated with 50µg [^14C]-radiolabelled gelatin in an appropriate buffer for 16 hours at 37'C. At the end of the incubation 50µg bovine serum albumin, together with trichloroacetic acid (final concentration 16%) were added to stop the reaction and to precipitate any undegraded substrate. The reaction tubes were placed on ice for 15 minutes before centrifugation at 10,000g for 15 minutes to sediment the precipitated substrate. A 200µl aliquot of the reaction supernatant was removed and the radioactivity determined by liquid scintillation counting. The effect of the inhibitors was determined by reference to a dose response curve. The IC50 (the concentration of inhibitor required to cause a 50% decrease in enzyme activity) was obtained by fitting a curve to the data and computing the concentration of inhibitor required to achieve 50% inhibition of the enzyme. For each IC50 determination, the effect on gelatinase activity of at least 8 concentrations of the inhibitor were examined. The inhibitors were dissolved and diluted in DMSO.

[4] = Blood concentration over time after gavage, by collagenase inhibitory activity of blood extracts; format: in vivo; settings: male rats
Experimental: The concentration over time of compound of the invention in the blood of laboratory animals following administration of the test compounds was measured. The compound was administered by gavage to 6 male rats (300g) per treatment group. Blood samples were removed by tail venepuncture at 0.5, 1.0, 2.0, 6.0 and 24 hours post administration. 0.4 ml of blood was placed into 4.5ml tubes containing 0.1ml acid citrate dextrose (ACD) as anti-coagulant. For extraction, 3ml methanol was added and the precipitated blood pelletted by centrifugation (30 min at 3000 rpm). A 2ml aliquot of supernatant was removed and concentrated by lyophilisation. The extract was redissolved in 200µl DMSO and a 10µl aliquot assayed for collagenase inhibitory activity. The inhibitory activity in the extracts was determined using the collagenase assay described in Biological Example A above, and the concentration of inhibitor (that is drug plus any active metabolites) obtained by comparison with standard curves. Results are expressed as peak concentration in ng/ml, as area under the curve (AUC) in ng/ml x hours, over 0.5-24 hours, and as AUC in number of IC50's x hours.

[5] = Inhibitory activity in blood after oral administration to marmosets; format: in vivo
[6] = Inhibitory activity in blood after oral administration to healthy human volunteers; format: in vivo
[7] = system: B16 mouse melanoma cells; test: B16 mouse melanoma model; format: in vivo, C57/BL6J mice
Source text: In this model C57/BL6J mice are inoculated subcutaneously with 10^5 B16 mouse melanoma cells. The tumours are allowed to grow over 18 days and the tumour weight calculated by calliper measurements and the following formula: weight (mg)- length (mm) x width (mm) ö 4. A group of mice (n=19) received the compound, administered via a mini-osmotic pump implanted subcutaneously on the opposite flank to the B16 tumour. The pump was implanted the day before tumour inoculation and the compound was delivered at a dose of 360 µg/day. A control group (n=17) received the appropriate volume of vehicle from identical implanted pumps.

[8] = system: MDA-435 cells; settings: study ended day 32
Experimental: In this model, animals were inoculated with MDA-435 cells (10^6 cells/mouse), the tumours allowed to grow for four days and then the animals were randomised by tumour weight into three treatment groups (n=15 per group). Mini-pumps were surgically implanted on day 5 containing either vehicle or test compound at 15 mg/ml or 60 mg/ml (delivering 180 or 720 µg/mouse/day respectively). The pumps were replaced on day 19 and the study ended on day 32.

[9] = Rat experimental autoimmune neuritis (EAN) model of GBS; format: in vivo
Experimental: The effect of the compound of the invention was tested in an animal model of GBS Experimental autoimmune neuritis (EAN) is a T cell mediated, autoimmune disorder of the peripheral nervous system. […] EAN can be induced when animals are injected with myelin from peripheral nerves, or with protein components of the myelin such as Protein 0, in adjuvant. EAN lesions occur in the spinal roots and peripheral nerves and are characterised by perivascular mononuclear cell infiltration, demyelination of axons and nerve conduction deficit.
The compound of the invention was tested in a rat EAN model where disease symptoms were induced by injection of peripheral nerve myelin in adjuvant. […]

[10] = Delayed type hypersensitivity (DTH) model of MS; format: in vivo, Male Lewis rats; settings: 30mg/kg orally twice daily, mean ± standard error of the mean
[11] = target: interstitial collagenase (Homo sapiens, UniProt P03956); test: biochemical
Sequence of interstitial collagenase (P03956 100-469, species assumed): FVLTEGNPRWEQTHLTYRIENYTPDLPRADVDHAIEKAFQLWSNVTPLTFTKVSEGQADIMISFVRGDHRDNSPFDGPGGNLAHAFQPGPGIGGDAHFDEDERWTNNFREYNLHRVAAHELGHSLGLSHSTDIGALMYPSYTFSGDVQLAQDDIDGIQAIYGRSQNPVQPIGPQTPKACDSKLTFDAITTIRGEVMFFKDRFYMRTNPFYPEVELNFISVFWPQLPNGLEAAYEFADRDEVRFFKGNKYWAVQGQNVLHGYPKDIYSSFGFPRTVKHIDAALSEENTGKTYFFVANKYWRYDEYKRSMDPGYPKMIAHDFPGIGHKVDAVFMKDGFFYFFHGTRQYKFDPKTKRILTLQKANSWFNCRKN
Experimental: The potency of the compound of the invention as inhibitors of interstitial collagenase was determined by the procedure of Cawston and Barrett, (Anal. Biochem., 99, 340-345, 1979), whereby a 1mM solution of the compound being tested, or a dilution thereof, was incubated at 37° for 16 hours with collagen and collagenase (buffered with 25mM Hepes, pH 7.5 containing 5mM CaCl2, 0.05% Brij 35 and 0.02% NaN3). The collagen was acetylated ^14C collagen prepared by the method of Cawston and Murphy, (Methods in Enzymology, 80, 711, 1981), hereby incorporated by reference. The samples were centrifuged to sediment undigested collagen, and an aliquot of the radioactive supernatant removed for assay on a scintillation counter as a measure of hydrolysis.

[12] = target: stromelysin-1 (Homo sapiens, UniProt P08254); test: biochemical
Sequence of stromelysin-1 (P08254 100-477, species assumed): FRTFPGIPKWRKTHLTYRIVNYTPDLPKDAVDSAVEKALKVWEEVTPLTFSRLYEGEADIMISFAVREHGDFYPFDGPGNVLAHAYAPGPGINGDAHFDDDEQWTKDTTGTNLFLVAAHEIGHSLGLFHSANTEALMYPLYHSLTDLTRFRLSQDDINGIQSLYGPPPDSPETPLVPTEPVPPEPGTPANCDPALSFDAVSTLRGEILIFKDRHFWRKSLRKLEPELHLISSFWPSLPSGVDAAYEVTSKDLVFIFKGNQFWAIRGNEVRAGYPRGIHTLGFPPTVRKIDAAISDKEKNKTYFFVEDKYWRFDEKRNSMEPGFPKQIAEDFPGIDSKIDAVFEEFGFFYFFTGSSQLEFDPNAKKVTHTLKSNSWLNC
Experimental: The potency of the compound of the invention as inhibitors of stromelysin-1 was determined by the procedure of Cawston et al, (Biochem. J., 195, 159-165, 1981), whereby a 1mM solution of the compound being tested, or a dilution thereof, was incubated at 37° for 16 hours with stromelysin and ^14C acetylate casein (buffered with 25mM Hepes, pH 7.5 containing 5mM CaCl2, 0.05% Brij 35 and 0.02% NaN3). The casein was acetylated ^14C casein prepared by the method of Cawston et al (ibid).

[13] = 15mg/ml in osmotic minipump, Compound A as mesylate salt, Compound B as free base

signs of tendinitis [1, 13]: significant signs from day 8 onwards
mean scores (tendinitis) ([1]; day 8, 15mg/ml in osmotic minipump): > 2
mean scores (tendinitis) ([1]; days 15 and 16, 15mg/ml in osmotic minipump): about 6
plasma exposure from the minipumps [2]: receiving plasma exposure
Compound: CC(C)C[C@@H](C(=O)N[C@H](C(=O)Nc1cccnc1)C(C)(C)C)[C@H](O)C(=O)NO [Compound B, N^1-[2,2-dimethyl-1S-(pyridin-3-ylcarbamoyl)-propyl]-N^4-hydroxy-2R-isobutyl-3S-hydroxy-succinamide]

Compound: CO[C@H](C(=O)NO)[C@@H](CC(C)C)C(=O)N[C@H](C(=O)Nc1ccccn1)C(C)(C)C [compound of the invention, N^1-[2,2-Dimethyl-1S-(pyridin-2-ylcarbamoyl)-propyl]-N^4-hydroxy-2R-isobutyl-3S-methoxy-succinamide]
IC50 [3]: 0.07 µM
AUC (0.5 - 24h) ([4]; AUC in number of IC50's x hours): 674 n IC50's x h
AUC (0.5 - 24h) ([4]; drug plus any active metabolites in blood): 2966 ng/ml x h
inhibitory activity in the blood [5]: significant levels of inhibitory activity have been detected
inhibitory activity in the blood [6]: significant levels of inhibitory activity have been detected
weight of the compound-treated tumours ([7]; day 18, 360 µg/day via subcutaneous mini-osmotic pump, control 1145 ± 97 mg): 774 ± 50 mg
reduction of tumour weight ([7]; day 18, 360 µg/day, versus vehicle control, p<0.005): 32%
plasma level ([7]; end of the study, 360 µg/day via mini-osmotic pump): 0.0268 ± 0.0032 µg/mL
inhibition of tumour growth ([8]; 180 µg/mouse/day (15 mg/ml mini-pump)): 19%
inhibition of tumour growth ([8]; 720 µg/mouse per day (60 mg/ml mini-pump), p<0.005): 33%
signs of tendinitis [1, 13]: no significant signs of tendinitis
signs of tendinitis ([1]; 30mg/ml in osmotic minipump, mesylate salt): no significant signs of tendinitis
clinical symptoms ([9]; given therapeutically day 8-15, 15 or 30 mg/ml at 10 µl/hour, 14 and 28 mg/kg/day): reduces clinical symptoms in a dose dependent manner
development of clinical symptoms ([9]; treatment day 1-15, minipumps 15 or 30 mg/ml at 5 µl/hour, 7 and 14 mg/kg/day): significantly reduces the development of clinical symptoms in a dose-dependent manner
Blood brain barrier leakage ([10]; day 5 to day 15 after second BCG injection, p<0.05 vs vehicle): 2.042±0.487 mm^2
T cell infiltration ([10]; OX-22 positive cells, p<0.0001 vs vehicle): 341.2±21.9 cells/mm^2
Demyelination ([10]; not statistically significant): 0.758±0.227 mm^2
MHC class II expression ([10]; not statistically significant): 1.318±0.300 mm^2
plasma exposure from the minipumps [2]: receiving plasma exposure
IC50 [11]: 0.01 µM
IC50 [12]: 0.03 µM
